Key:
Assay in all cases: relative viability (nuclei count vs DMSO), 5 days (fraction); higher = more cells survive
[1] = compound: Cn1cc(-c2cnn3c(N)c(Br)c([C@@H]4CCCNC4)nc23)cn1 + CC(=O)c1c(C)c2cnc(Nc3ccc(N4CCNCC4)cn3)nc2n(C2CCCC2)c1=O [Palbociclib] (partner 0.5 µM)
How it was run: (§1)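 A single step with final 0.05% Triton X-100, 1% formaldehyde and 1 ug/ml Hoechst fixed the cells and stained nuclei 5 days after treatment. Lung cancer cell lines in 1536-well plates had been treated by pin tool the day after seeding with one drug alone or a fixed anchor-drug dose plus five library-drug doses (not always all listed) in √10 steps, and nuclei were counted on 4× images. Relative viability is the ratio of nuclei in treated wells to nuclei in vehicle wells, taken as the median of duplicate plates.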

[2] = compound: Cn1cc(-c2cnn3c(N)c(Br)c([C@@H]4CCCNC4)nc23)cn1 + Cc1nc(NC(=O)N2CCC[C@H]2C(N)=O)sc1-c1ccnc(C(C)(C)C(F)(F)F)c1 [Alpelisib] (partner 2 µM)
How it was run: as §1

[3] = compound: Cn1cc(-c2cnn3c(N)c(Br)c([C@@H]4CCCNC4)nc23)cn1 + Nc1nc2[nH]cc(CCc3ccc(C(=O)N[C@@H](CCC(=O)O)C(=O)O)cc3)c2c(=O)[nH]1 [Pemetrexed] (partner 0.2 µM)
How it was run: as §1

[4] = compound: Cn1cc(-c2cnn3c(N)c(Br)c([C@@H]4CCCNC4)nc23)cn1 + O=C(c1cc(Cc2n[nH]c(=O)c3ccccc23)ccc1F)N1CCN(C(=O)C2CC2)CC1 [Olaparib] (partner 8 µM)
How it was run: as §1

Cell Line	relative viability ([1]; first compound 0.05 µM)	relative viability ([1]; first compound 0.1581 µM)	relative viability ([1]; first compound 0.5 µM)	relative viability ([1]; first compound 1.581 µM)	relative viability ([1]; first compound 5 µM)	relative viability ([2]; first compound 0.05 µM)	relative viability ([2]; first compound 0.1581 µM)	relative viability ([2]; first compound 0.5 µM)	relative viability ([2]; first compound 1.581 µM)	relative viability ([2]; first compound 5 µM)	relative viability ([3]; first compound 0.05 µM)	relative viability ([3]; first compound 0.1581 µM)	relative viability ([3]; first compound 0.5 µM)	relative viability ([3]; first compound 1.581 µM)	relative viability ([3]; first compound 5 µM)	relative viability ([4]; first compound 0.05 µM)	relative viability ([4]; first compound 0.1581 µM)	relative viability ([4]; first compound 0.5 µM)	relative viability ([4]; first compound 1.581 µM)	relative viability ([4]; first compound 5 µM)
LXF-289	0.618	0.663	0.585	0.555	0.654	1.08	1.14	1.01	1.01	1.06	0.985	0.953	0.823	0.779	0.645	1.17	1.27	1.04	1.17	1.31
NCI-H23	0.568	0.496	0.552	0.34	0.25	0.741	0.717	0.613	0.667	0.227	0.582	0.539	0.504	0.275	0.19	0.283	0.286	0.229	0.227	0.174
NCI-H322M	0.424	0.458	0.452	0.463	0.393	0.765	0.799	0.863	0.756	0.678	0.602	0.548	0.561	0.49	0.363	0.323	0.704	0.775	0.635	0.418
NCI-H358	0.151	0.134	0.128	0.104	0.111	0.957	0.766	0.852	0.518	0.78	0.177	0.164	0.162	0.166	0.129	0.675	0.643	0.598	0.372	0.414
NCI-H441	0.191	0.189	0.199	0.172	0.193	0.859	1.15	0.856	–	0.852	0.261	0.283	0.254	0.277	0.25	0.672	0.697	0.494	0.37	0.43
NCI-H460	0.227	0.144	0.0866	0.0886	0.0189	0.59	0.459	0.509	0.155	0.0851	0.0569	0.0582	0.0504	0.0664	0.0552	0.341	0.195	0.38	0.233	0.127
NCI-H520	0.266	0.232	0.231	0.199	0.172	0.86	0.887	0.763	0.64	0.785	0.596	0.584	0.554	0.452	0.296	0.353	0.367	0.302	0.326	0.236
NCI-H647	0.378	0.47	0.423	0.228	0.107	1.16	1	1.05	0.331	0.444	0.174	0.104	0.104	0.114	0.0596	0.686	0.64	0.332	0.202	0.12
NCI-H650	0.372	0.357	0.36	0.313	0.324	1.16	1.22	1.23	1.05	0.858	0.893	0.93	0.92	0.919	0.63	0.427	0.557	0.523	0.551	0.397
NCI-H661	0.395	0.371	0.387	0.389	0.344	0.596	0.611	0.521	0.667	0.297	0.98	0.635	0.667	0.754	0.588	0.874	0.83	0.745	0.511	0.538
NCI-H838	0.238	0.228	0.211	0.178	0.224	1.08	1.16	0.94	0.784	1.02	0.229	0.168	0.175	0.17	0.151	0.79	0.911	0.797	0.611	0.648
NCI-H1355	0.371	0.425	0.397	0.385	0.382	0.797	0.875	0.819	0.849	0.825	0.978	1.16	1.11	1.08	0.88	0.811	0.89	0.788	0.795	0.69
NCI-H1395	0.628	0.492	0.567	0.421	0.419	1.18	0.685	0.874	0.66	0.435	0.695	0.445	0.535	0.578	0.446	0.432	0.445	0.395	0.376	0.372
NCI-H1437	0.311	0.321	0.339	0.259	0.231	1.05	1.02	0.795	0.576	0.761	0.294	0.226	0.248	0.172	0.194	0.664	0.726	0.71	0.646	0.595
NCI-H1651	0.556	0.564	0.536	0.502	0.424	1.08	1	1.01	0.479	0.434	0.549	0.406	0.559	0.32	0.198	0.17	0.146	0.166	0.164	0.145
NCI-H1666	0.674	0.654	0.649	0.615	0.618	1.02	1.01	0.853	0.807	0.785	0.837	0.826	0.749	0.63	0.658	0.777	0.797	0.7	0.716	0.741
NCI-H1734	0.387	0.347	0.317	0.323	0.295	0.708	0.695	0.626	0.596	0.58	0.411	0.384	0.347	0.307	0.265	0.625	0.647	0.52	0.599	0.441
NCI-H1755	0.467	0.494	0.459	0.449	0.425	1.03	1.05	0.817	0.873	0.879	0.398	0.397	0.401	0.373	0.272	0.964	0.989	0.931	0.989	0.847
NCI-H1792	–	0.777	0.663	0.668	0.617	0.883	0.887	0.411	0.408	0.488	0.847	1.19	0.795	–	0.55	0.637	0.368	0.378	–	0.34
NCI-H1793	0.349	0.281	0.32	0.301	0.31	0.773	0.878	0.709	0.666	0.58	1.02	0.838	0.79	0.766	0.49	1.02	1.08	0.921	0.718	0.472
NCI-H1915	0.591	0.562	0.522	0.508	0.543	1.01	1.08	1.03	1.08	1.1	0.545	0.435	0.422	0.372	0.358	0.312	0.268	0.299	0.261	0.236
NCI-H1944	0.31	0.343	0.282	0.261	0.261	0.808	0.797	0.825	0.717	0.626	0.688	0.511	0.541	0.337	0.152	0.408	0.448	0.374	0.378	0.349
NCI-H1975	0.654	0.58	0.476	0.449	0.27	0.685	0.681	0.655	0.404	0.525	0.304	0.25	0.249	0.261	0.189	0.841	0.792	0.7	0.581	0.708
NCI-H1993	0.645	0.704	0.584	0.564	0.471	0.632	0.7	–	0.66	0.708	0.572	0.595	0.693	0.482	0.575	0.959	1.05	1.01	0.969	1.1
NCI-H2009	0.237	0.177	0.185	0.18	0.113	1.17	1.25	1.09	1.09	0.849	1.01	1.02	0.99	0.895	0.683	0.685	0.749	0.714	0.872	0.595
NCI-H2023	0.341	0.335	0.191	0.18	0.128	0.494	0.497	0.48	0.3	0.193	0.175	0.124	0.115	0.118	0.112	0.473	0.336	0.253	0.253	0.139
NCI-H2085	0.46	0.521	0.51	0.471	0.385	1.01	1.04	0.955	0.868	0.769	0.864	0.925	0.921	0.789	0.7	0.813	0.849	0.776	0.762	0.752
